Patent US20090099319A1, “METHOD FOR SOLUBILISING HYDROPHOBIC ACTIVE SUBSTANCES IN AN AQUEOUS MEDIUM” (BASF SE, priority 2006, published 2009)
Values after ≈ are worked out from the molar mass of the structure shown.

Assay: physchem
Conditions: water, thermodynamic from solid
Method: The excess solid was separated off by subsequently centrifuging the solutions twice at 15 000 rpm (20 minutes in each case), producing in all instances a clear, saturated solution of active substance. Subsequently the amount of the guest molecules complexed was determined by means of UV-VIS spectra, the reference sample used in each case being the respective aqueous polymer solution with the same concentration and the same preparation (likewise centrifuged). […] For all of the solubilization experiments evaluated in this way, the measurement error was ±5%.

SMILES: COCCOC(=O)C1=C(C)NC(C)=C(C(=O)OC(C)C)C1c1cccc([N+](=O)[O-])c1 (stereo not drawn) [nimodipine, 1,4-dihydro-2,6-dimethyl-4-(3′-nitrophenyl)pyridine 3-β-methoxyethyl ester 5-isopropyl ester]
- solubility at 18 h: 1.1 µg/mL (≈ 2.63 µM)
